Where a name gives a salt, the structure may show the parent alone. Read-outs that look alike come from different tables or passages of the source.
Key:
human thrombin = human thrombin (Homo sapiens, UniProt P00734); experiment: Thrombin inhibition assay (selectivity against thrombin); type: biochemical; conditions: for Selectivity (thrombin/FXa): ratio of Ki values; for Ki: read-out: Inhibition ability against thrombin Ki
Procedure: The FXa inhibiting selectivity of the compound according to the present invention to thrombin is measured as follows. The inhibition effect of the compound of formula 1 to thrombin is measured in Ki value by practicing the same method as the above measuring method of FXa inhibiting activity, and the rate of thrombin/FXa is obtained. At this time, the experimental method of thrombin is the same as that of FXa, except that Chromozyme TH (Tosyl-Gly-Pro-Arg-nitroanilide acetate) is used as the substrate.
Inhibiting ability of a compound according to the present invention against thrombin activity was measured as follows.
In 1.5 mL cuvette, 0.1M tris buffer solution (pH 7.8) comprising 150 mM NaCl, and 0.1% PEG 8000 (molecular weight 8000) was placed by 1160 uL. Chromozyme X was dissolved in dimethylsulfoxide (DMSO) to be 0.1 mM, and diluted with the above buffer solution to be 0.1 mM to prepare the substrate solution. 225 uL of 0.1 mM substrate solution as prepared above was added to cuvette. The compound of the present invention was dissolved in DMSO to be 10 mM, and diluted with the above buffer solution to be 0.1 mM, 0.01 mM and 0.001 mM, respectively, to prepare an inhibitor solution. The inhibitor solution was taken in an amount from 0 to 20 uL, and supplemented with tris buffer solution up to 20 uL of total volume of the solution to add to the cuvette.
15 uL of human thrombin, which was dissolved in the above tris buffer solution to be 0.1 mg/mL, was added to the cuvette having the reaction solution at room temperature to begin enzyme hydrolysis. The amount of para-nitroanilide produced for 2 minutes after adding enzyme was monitored about variation of absorbency at 381 nm to depict continuous spectrum of reaction time to absorbency. The above experiment was repeated for various concentrations of inhibitor to obtain consecutive spectrum.
The initial velocity Vi was calculated from gradient within 30 sec of the reaction time in each spectrum. A graph was depicted for a reciprocal of the initial velocity to inhibitor concentration (1/Vi). A linear equation corresponding to points on the graph was obtained. Thereafter, Ki may be calculated by using enzyme reaction equation from x intercept.

trypsin [1] = target: T1, trypsin (UniProt P00760); experiment: Trypsin inhibition assay (selectivity against trypsin); type: biochemical; conditions: A1: cyclopropyl scaffold; read-out: Inhibition ability against trypsin Ki
T1 construct: other: A1: cyclopropyl scaffold; other: A2: pyrrole scaffold; other: A3: bicyclic scaffold; other: A4: cyanophenylalanine scaffold
T1 sequence (P00760 1-246): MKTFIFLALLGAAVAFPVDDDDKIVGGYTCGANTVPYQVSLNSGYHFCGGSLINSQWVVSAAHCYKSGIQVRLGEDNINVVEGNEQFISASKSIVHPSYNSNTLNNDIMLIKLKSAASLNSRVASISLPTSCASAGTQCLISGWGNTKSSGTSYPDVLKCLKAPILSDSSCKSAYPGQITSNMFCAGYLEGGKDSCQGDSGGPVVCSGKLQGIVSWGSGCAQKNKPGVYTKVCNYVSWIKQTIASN
Procedure: (§1) The FXa inhibition selectivity of the compound according to the present invention to trypsin is measured as follows. The inhibition effect of the compound of formula 1 to trypsin is measured in Ki value by practicing the same method as the above measuring method of FXa inhibiting activity, and the rate of trypsin/FXa is obtained. At this time, the experimental method of thrombin is the same as that of FXa, except that N-benzoyl-Val-Gly-Arg-p-nitroanilide hydrochloride is used as the substrate.
(§2) Inhibition activity of a compound according to the present invention was measured by performing the experiment as explained above concerning FXa.
(§3) 20 uM solution of N-benzoyl-Val-Gly-Arg-p-nitroanilide hydrochloride was used as a substrate. An inhibitor solution with various concentrations in the range of 0 to 120 uM was used. Trypsin was dissolved in 0.1N HCl, and supplemented with the above tris buffer solution to be 45 ug/mL. Thereafter, 40 uL of the trypsin solution was used. The remaining procedure and the used amounts of materials (for example, […] of total volume of the reaction solution) and the like were the same as those of the experiment for thrombin. Also, Km was decided in the same method as used in Ki calculation.

trypsin [2] = experiment: as above; type: biochemical; conditions: A1: cyclopropyl scaffold; ratio of Ki values
Procedure: as §1, §2, §3

[3] = background art; cited from earlier work
FXa = FXa (Homo sapiens, UniProt P00742); conditions: background art; cited from earlier work
FXa, sequence (P00742 235-488 limits assumed): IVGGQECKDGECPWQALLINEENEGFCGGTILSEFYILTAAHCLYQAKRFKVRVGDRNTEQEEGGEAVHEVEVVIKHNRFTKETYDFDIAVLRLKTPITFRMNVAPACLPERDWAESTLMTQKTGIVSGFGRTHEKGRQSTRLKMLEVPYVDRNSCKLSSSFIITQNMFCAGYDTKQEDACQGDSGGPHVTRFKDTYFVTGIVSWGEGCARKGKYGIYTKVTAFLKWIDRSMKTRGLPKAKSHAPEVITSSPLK
FXa, sequence (P00742 41-179 limits assumed): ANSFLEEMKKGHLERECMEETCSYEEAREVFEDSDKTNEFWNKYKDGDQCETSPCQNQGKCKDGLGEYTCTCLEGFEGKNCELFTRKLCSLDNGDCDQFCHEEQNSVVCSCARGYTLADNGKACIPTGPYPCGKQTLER

[4] = A4: cyanophenylalanine scaffold

Molecule: 4-(2-cyanophenyl)-phenyl N-carboxymethyl)-3-(3-aminoiminomethylphenyl)alanine amide trifluoroacetic acid salt [Compound No. A4-10]
- Selectivity (thrombin/FXa) (human thrombin; [4]): 14
- Ki (human thrombin; [4]): 1700 nM

Molecule: 4-(4-Aminoiminomethylbenzyl)-1-(3-aminoiminomethylhydroxy-benzyl)-pyrrole-3-carboxylic acid bis trifluoroacetic acid salt [Compound No. A2-30]
- Selectivity (thrombin/FXa) (human thrombin; A2: pyrrole scaffold): 190

Molecule: Cc1ccc(S(N)(=O)=O)c(-c2ccc(NC(=O)[C@@H]3C[C@H]3c3cccc(C(=N)N)c3)cc2)c1.O=C(O)C(F)(F)F (relative stereo) [Compound No. A1-3, 4-(2-aminosulfonyl-5-methyl-phenyl)-phenyl trans 2-(3-aminoiminomethylphenyl-cyclopropane-1-carboxamidemonotrifluoroacetic acid salt]
- Ki (human thrombin; A1: cyclopropyl scaffold): 520 nM
- Ki (trypsin [1]): 120 nM

Molecule: Cc1ccc(S(N)(=O)=O)c(-c2ccc(NC(=O)[C@@H]3C[C@H]3c3cccc(C(=N)N)c3)cc2)c1.O=C(O)C(F)(F)F (relative stereo) [Compound No. A1-3]
- Selectivity (thrombin/FXa) (human thrombin; A1: cyclopropyl scaffold): 5
- Selectivity (trypsin/FXa) (trypsin [2]): 0.94

Molecule: Cc1ccc(S(N)(=O)=O)c(-c2ccc(NC(=O)[C@@H]3C[C@@H]3c3cccc(C(=N)N)c3)cc2)c1.O=C(O)C(F)(F)F (relative stereo) [Compound No. A1-4, 4-(2-aminosulfonyl-5-methyl-phenyl)-phenyl cis-2-(3-aminoiminomethylphenyl)-cyclopropane-1-carboxamide mono trfluoroacetic acid salt]
- Selectivity (thrombin/FXa) (human thrombin; A1: cyclopropyl scaffold): 127
- Ki (human thrombin; A1: cyclopropyl scaffold): 380 nM

Molecule: N#Cc1ccccc1-c1ccc(NC(=O)[C@@H]2C[C@@H]2c2cccc(C(=N)N)c2)cc1.O=C(O)C(F)(F)F (relative stereo) [Compound No. A1-7, 4-(2-cyanophenyl)-phenyl [1,2]-cis, [2,3]-cis-2-(3-aminoiminomethylphenyl)cyclopropane-1-carboxamide mono trifluoroacetic acid salt]
- Selectivity (thrombin/FXa) (human thrombin; A1: cyclopropyl scaffold): 400
- Ki (human thrombin; A1: cyclopropyl scaffold): 2000 nM
- Selectivity (trypsin/FXa) (trypsin [2]): 40
- Ki (trypsin [1]): 200 nM

Molecule: CCOC(=O)c1cn(Cc2ccccc2)cc1Cc1ccc(C(=N)N)cc1.O=C(O)C(F)(F)F [Compound No. A2-1, Ethyl 4-(4-aminoiminomethylbenzyl)-benzyl-pyrrole-3-carboxylate trifluoroacetic acid salt]
- Selectivity (thrombin/FXa) (human thrombin; A2: pyrrole scaffold): 0.1

Molecule: CCOC(=O)c1cn(Cc2ccc(-c3ccccc3)cc2)cc1Cc1cccc(C(=N)N)c1.O=C(O)C(F)(F)F [Compound No. A2-19, Ethyl 4-(3-aminoiminomethylbenzyl)-1-(4-biphenylmethyl)-pyrrole-3-carboxylate trifluoroacetic acid salt]
- Selectivity (thrombin/FXa) (human thrombin; A2: pyrrole scaffold): 0.4

Molecule: N=C(N)c1ccc(Cn2cc(Cc3cccc(C(=N)N)c3)c(C(=O)N3CCOCC3)c2)cc1 [Compound No. A2-40, 4-(3-Aminoiminomethylbenzyl)-1-(4-aminoiminomethylbenzyl)-pyrrole-3-carboxylic acid morphorline amide bis trifluoroacetic acid salt]
- Selectivity (thrombin/FXa) (human thrombin; A2: pyrrole scaffold): 14

Molecule: CCOC(=O)c1cn(Cc2ccc(C(=N)N)cc2)cc1Cc1ccc(C(=N)N)cc1.O=C(O)C(F)(F)F.O=C(O)C(F)(F)F [Compound No. A2-42]
- Selectivity (thrombin/FXa) (human thrombin; A2: pyrrole scaffold): 4.7

Molecule: CCOC(=O)c1cn(Cc2cccc(C(=N)N)c2)cc1-c1cccc(-c2ccccc2)c1.O=C(O)C(F)(F)F [Compound No. A2-51, Ethyl 4-(3-biphenyl)-1-(3-aminoiminomethylbenzyl)-pyrrole-3-carboxylate trifluoroacetic acid salt]
- Selectivity (thrombin/FXa) (human thrombin; A2: pyrrole scaffold): 0.08

Molecule: CCOC(=O)c1cn(Cc2cccc(C(=N)N)c2)cc1-c1ccc(-c2ccccc2)cc1.O=C(O)C(F)(F)F [Compound No. A2-52, Ethyl 4-(4-biphenyl)-1-(3-aminoiminomethylbenzyl)-pyrrole-3-carboxylate trifluoroacetic acid salt]
- Selectivity (thrombin/FXa) (human thrombin; A2: pyrrole scaffold): 2.6

Molecule: N=C(N)c1ccc(-c2ccccc2NC(=O)Nc2cccc(C(=N)N)c2)cc1.O=C(O)C(F)(F)F.O=C(O)C(F)(F)F [Compound No. A3-8]
- Selectivity (thrombin/FXa) (human thrombin; A3: bicyclic scaffold): 1.6

Molecule: N=C(N)c1ccc(NC(=O)Nc2ccccc2-c2ccc(C(=N)N)cc2)cc1.O=C(O)C(F)(F)F.O=C(O)C(F)(F)F [Compound No. A3-9]
- Selectivity (thrombin/FXa) (human thrombin; A3: bicyclic scaffold): 0.04

Molecule: N=C(N)c1ccc(NC(=O)Nc2ccccc2-c2cccc(C(=N)N)c2)cc1.O=C(O)C(F)(F)F.O=C(O)C(F)(F)F [Compound No. A3-10]
- Selectivity (thrombin/FXa) (human thrombin; A3: bicyclic scaffold): 0.82

Molecule: N=C(N)c1cccc(NC(=O)Nc2ccccc2-c2cccc(C(=N)N)c2)c1.O=C(O)C(F)(F)F.O=C(O)C(F)(F)F [Compound No. A3-11]
- Selectivity (thrombin/FXa) (human thrombin; A3: bicyclic scaffold): 6.4

Molecule: N=C(N)c1cccc(-c2ccccc2NS(=O)(=O)Cc2ccccc2)c1.O=C(O)C(F)(F)F [Compound No. A3-21]
- Selectivity (thrombin/FXa) (human thrombin; A3: bicyclic scaffold): 0.73

Molecule: CC(=N)N1CC[C@H](Oc2ccc(C(Cc3ccc4ccc(C(=N)N)cc4c3)C(=O)O)cc2)C1 (stereo partly drawn) [DX9065a]
- oral absorption [3]: capable of being absorbed orally

Molecule: N=C(N)c1ccc(O)c(CN2CC[C@H](NS(=O)(=O)c3ccc(-c4cccnc4)s3)C2=O)c1 [RPR-130737]
- effect as a Fxa inhibitor (FXa): excellent effect as a Fxa inhibitor
- selectivity against thrombin, trypsin and the like enzymes (FXa): excellent selectivity against thrombin, trypsin and the like enzymes

Molecule: N=C(N)c1cccc(C2=NOC(Cc3nn[nH]n3)(C(=O)Nc3ccc(-c4ccccc4S(N)(=O)=O)cc3)C2)c1 (stereo not drawn) [SK-549]
- effect as a Fxa inhibitor (FXa): excellent effect as a Fxa inhibitor
- selectivity against thrombin, trypsin and the like enzymes (FXa): excellent selectivity against thrombin, trypsin and the like enzymes

Molecule: CC(=N)N1CCC(Oc2ccc(N(Cc3ccc4ccc(C(=N)N)cc4c3)S(=O)(=O)CC(=O)O)cc2)CC1 [YM-60828]
- oral absorption [3]: capable of being absorbed orally

Molecule: CN1CCN=C1c1cccc(Oc2nc(Oc3cc(C(=N)N)ccc3O)c(F)c(N(C)CC(=O)O)c2F)c1 [ZK-80719]
- oral absorption [3]: capable of being absorbed orally

Molecule: CC(C)c1nc2c(C(=O)O)cc(NC3CCN(C(=N)N)CC3)cc2n1Cc1ccc2ccc(C(=N)N)cc2c1 [ZK-807369]
- oral absorption [3]: capable of being absorbed orally

Molecule: Ethyl 4-(3-aminoiminomethylbenzyl)-1-aminoiminomethylbenzyl)-pyrrole-3-carboxylate bis trifluoroacetic acid salt [Compound No. A2-37]
- Selectivity (thrombin/FXa) (human thrombin; A2: pyrrole scaffold): 7.0

Reference: patent publication US20030065176A1, “Factor xa inhibitors with aryl-amidines and derivatives, and prodrugs thereof” (priority 2000, published 2003)
